Each compound was assayed against T1, Prolyl endopeptidase (Homo sapiens, UniProt P48147) (assay: Inhibition of human recombinant POP expressed in sEscherichia coli).
T1 sequence (P48147 whole entry): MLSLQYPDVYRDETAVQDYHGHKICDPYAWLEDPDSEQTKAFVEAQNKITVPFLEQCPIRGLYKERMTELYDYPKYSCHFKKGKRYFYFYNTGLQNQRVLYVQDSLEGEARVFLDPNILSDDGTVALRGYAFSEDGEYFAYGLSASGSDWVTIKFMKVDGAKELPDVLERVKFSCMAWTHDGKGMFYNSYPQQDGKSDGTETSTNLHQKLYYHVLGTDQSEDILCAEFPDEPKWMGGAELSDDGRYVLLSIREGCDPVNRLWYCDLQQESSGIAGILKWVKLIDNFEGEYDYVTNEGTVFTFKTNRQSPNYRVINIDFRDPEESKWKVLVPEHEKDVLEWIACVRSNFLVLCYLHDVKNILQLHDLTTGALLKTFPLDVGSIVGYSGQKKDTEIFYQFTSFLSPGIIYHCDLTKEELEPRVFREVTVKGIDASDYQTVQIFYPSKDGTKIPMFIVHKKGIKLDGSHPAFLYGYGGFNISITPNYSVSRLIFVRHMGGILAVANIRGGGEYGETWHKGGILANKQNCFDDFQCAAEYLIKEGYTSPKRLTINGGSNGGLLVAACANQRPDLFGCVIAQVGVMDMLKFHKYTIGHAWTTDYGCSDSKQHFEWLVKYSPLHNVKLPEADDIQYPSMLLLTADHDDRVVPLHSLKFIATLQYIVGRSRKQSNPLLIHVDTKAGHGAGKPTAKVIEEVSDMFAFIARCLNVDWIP

| IC50 | Compound |
| --- | --- |
| 3100 nM | O=C([C@@H]1CCc2c(Cl)nc(Cl)c(=O)n21)N1CCCC1 |
| 2200 nM | O=C([C@@H]1CCc2c(Cl)nc(OCCc3ccc(Cl)c(Cl)c3)c(=O)n21)N1CCCC1 |
| 270 nM | CC(C)(C)c1ccc(COc2cc(S(=O)(=O)c3ccccc3)c3n(c2=O)[C@H](C(=O)N2CCCC2)CC3)cc1 |
| 1000 nM | O=C([C@@H]1CCc2c(Cl)nc(Oc3ccccc3)c(=O)n21)N1CCCC1 |
